Data set [1] deals with normal human dermal fibroblasts (NHDF). Description: NHDF migration assay, 48-well chemotaxis chamber. It counts as cell-based. The conditions noted are these: for induction of NHDF migration: concentrations ranging from 1000 μg/mL to 10 ng/mL (data not shown). As for the experimental part: Normal, human dermal fibroblasts (NHDF) were obtained from Biowhittaker, (Walkersville, Md.) and propagated in T75 flasks in FBM media (500 mL, Biowhittaker) containing insulin, hFGF-b, GA-1000, and fetal bovine serum (10 mL) for up to 12 passages. For the migration assay, NHDF were washed once with 10 mL of Hank's buffered saline solution (HBSS). Three milliliters of trypsin (0.25%) in EDTA were added to the T75 flask for no more than five minutes to remove NHDF from the flask. NHDF in trypsin solution were added to 7 mL of FBM with no supplements added. NHDF were centrifuged for 5 minutes, and the supernatant was removed. NHDF were resuspended in 10 mL of FBM for counting. NHDF were centrifuged for another 5 minutes, and the supernatant was removed. NHDF were resuspended at 1×10^6 cells per mL in FBM without supplements. It was important to use FBM media only in migration assays because the complete media contains fibroblast growth factor and serum, both of which will trigger migration of fibroblasts.
Peptides were synthesized and purified by the Microchemical Facility at Emory University or by SigmaGenesis. All peptides were analyzed by mass spectrometry after HPLC to assess purity. Approximately 0.5–2.0 milligrams of peptide were used to make fresh stock solutions (5 mg/mL in PBS) for each migration assay. The peptide stock solutions in PBS were used to make more dilute solutions (1 mg/mL, 100 μg/mL, 10 μg/mL, 1 μg/mL, 100 ng/mL, 10 ng/mL) in FBM (without supplements) for the migration assays.
Polyvinylpyrrolidone-free polycarbonate membranes with […] pores (Neuroprobe, Inc., Gaithersburg, Md.) were washed with 90% ethanol for 15 minutes and rinsed four times with deionized water. Membranes were then placed into a glass dish containing an aqueous solution of 5 μg/mL gelatin. The glass dish was placed in to a water bath at about 90° C. for one hour. Membranes were removed from the gelatin solution and were allowed to dry for one hour in the 37° C. incubator.
A 48-well chemotaxis chamber (Neuroprobe, Inc., Gaithersburg, Md.) (see FIG. 20) was used for the migration assays. Twenty-eight μL of each test solution were added to the bottom wells of the chamber in quadruplicate. A gelatin-treated membrane was placed carefully on top of the bottom wells. The gasket and top part of chamber were then placed carefully on top of the membrane. The apparatus was tightened using six thumbscrews. A solution of NHDF containing an estimated cell density (2×10^5 cells per mL) was made by adding 320 μL of the 1×10^6 cells per mL solution to 1.28 mL of FBM (no supplements). Fifty microliters of the 2×10^5 cells per mL NHDF solution were added to the top part of each well in the chamber. The chamber was placed in the incubator at 37° C./5% CO2 for three hours. The chamber was removed, the thumbscrews were removed, and the chamber was turned upside down on a paper towel. […] The membrane was carefully removed. […] The membrane was fixed with methanol and stained using the Diff-Quik Staining Solutions I and II. The nuclei of NHDF are stained purple. The membrane was mounted on a glass slide using cedarwood immersion oil and a cover slip. […] The average number of migrated NHDF in the negative control was subtracted from the experimental (peptide) data and positive control data.

The subject of another data set is EpiDerm skin model. Description: viability assay (MTT) in EpiDerm skin model. It counts as cell-based. The conditions noted are these: peptide at 500 μM and 2 mM, relative to PBS control. As for the experimental part:
The sample containers were transferred to 6 well plates that contained fresh media. All peptides were dissolved in PBS at a final concentration of 10 mM, and 100 μL each peptide solution was pipetted onto the surface of the Epiderm sample container. Incubation was continued for 12 hours at 37° C., 5% CO2. After the incubation period, the sample containers were washed three times with PBS and the sample containers were transferred to a 24 well plate that contained 300 μL of MTT assay media per well (MTT concentration was 1 mg/mL). The colorimetric assay was allowed to develop for three hours (incubation at 37° C., 5% CO2). Sample containers were then transferred to a 24 well culture plate that contained 2 mL of isopropanol per well. Extraction of the colored precipitate occurred over a period of four hours at room temperature. Absorbance readings were taken at 570 nm and 650 nm for each sample. The percent viability of each sample relative to a PBS control was calculated as: 100×(OD570^sam−OD650^sam)/(OD570^con−OD650^con) (6) Routinely, the peptide sample was assayed in triplicate. Results

For a further data set, the system named is neutrophils. The data set can be described thus: neutrophil migration assay, transwell plate. The class given is cell-based, human. The conditions noted are these: 10 nM, positive control. Here is the method: Peptides were synthesized and purified by the Microchemical Facility at Emory University or by SigmaGenesis. All peptides were analyzed by mass spectrometry after HPLC to assess purity. Approximately 0.5–2.0 milligrams of peptide were used to make fresh stock solutions (5 mg/mL in HBSS/HSA) for each migration assay. The peptide stock solutions were used to make more dilute solutions (1 mg/mL, 100 μg/mL, 10 μg/mL, 1 μg/mL, 100 ng/mL, and 10 ng/mL) in HBSS/HSA for the assays.
Neutrophils were isolated from human blood (collected in Vacutainer™ tubes containing EDTA) by layering the blood/EDTA mixture (about 20 mL) on top of two layers of Histopaque™ 1119 (bottom layer, 18 mL) and 1077 (top layer, 7 mL) in 50 mL Falcon tubes. The tubes were centrifuged at 1800 rpm for 30 minutes (no brake). Four layers appeared in the tubes after the spin (from top to bottom layers): plasma, 1077, 1119, and red blood cells. The buffy coat between the plasma and 1077 layers contained lymphocytes, monocytes, and some platelets. The plasma layer, the buffy coat, and most of the 1077 layer was removed and discarded. The 1119 layer that contained the neutrophils was removed and was placed into a clean 50 mL tube. Dulbecco's Phosphate Buffered Saline (DPBS) was added to bring the volume to 50 mL. The cells were centrifuged for 15 minutes at 2100 rpm. The cells were resuspended in 10 mL of DPBS, transferred to 15 mL tubes, and centrifuged again for 10 minutes at 2000 rpm. This process was repeated to wash the cells a second time. After the supernatant was removed, the red blood cells were lysed by adding 6 mL of cold sterile water to each 15 mL of supernatant. Cells were mixed in the water for only 30 seconds. Six mL of cold 2% sterile saline was then added. Cells were centrifuged again for 10 minutes at 2000 rpm. The red supernatant (containing hemoglobin from red blood cells) was removed. This process of red blood cell lysis was repeated two more times to remove all of the red blood cells. After most of the red blood cells were removed, neutrophils were resuspended in 10 mL of HBSS/HSA for counting with trypan blue.
A neutrophil migration assay was performed in duplicate using a 24-well transwell plate (3 μm pore size for membrane). Transwell membranes were pre-moistened with 20–40 μL of HBSS/HSA (0.04–0.4%). Chemotactic solutions (500 μL) were added to the bottom of each well. […] Transwells were then placed into the chemotactic solutions. The plate was placed into the incubator (37° C., 5% CO2) for one hour. Cells that migrated through the membrane were counted using trypan blue.
In the neutrophil migration experiments, neutrophils that were isolated were approximately 95% viable. […]

“Also recorded” adds a separate entry of the source. Residues, ends and D or L forms follow the SMILES beside them.

Take `CC(C)[C@H](NC(=O)[C@H](CC(=O)O)NC(=O)[C@@H]1CCCN1C(=O)[C@H](CC(N)=O)NC(=O)CNC(=O)[C@H](CS)NC(=O)[C@H](CCCNC(=N)N)NC(=O)[C@@H]1CCCN1)C(=O)N[C@@H](C)C(=O)O` [Peptide 9-mer] (H-PRCGNPDVA-OH; N-terminus and C-terminus assumed): the “NHDF migration, percent of the plasma fibronectin positive control” value in data set [1] (100 μg/mL peptide) amounted to 16±10%; in data set [1] (1000 μg/mL peptide) it was 32±2%. In the data set on EpiDerm skin model, this molecule returned a total average viability of 95.8%.
In the same order, the values of `N=C(N)NCCC[C@H](NC(=O)[C@@H]1CCCN1C(=O)[C@H](Cc1ccccc1)NC(=O)[C@H](Cc1ccccc1)NC(=O)[C@H](CC(N)=O)NC(=O)[C@H](Cc1ccc(O)cc1)NC(=O)[C@@H](N)CC(N)=O)C(=O)N[C@@H](CCCCN)C(=O)N1CCC[C@H]1C(=O)N[C@@H](CCCCN)C(=O)O` [Peptide 10-mer] (H-NYNFFPRKPK-OH; N-terminus and C-terminus assumed) are 11±0%, 30±2% and 89.6%.
Consider “IL-8: positive control for neutrophil migration, 10 nM [reference compound]”, for which the “Percent Neutrophil Migration exp. 2” value in the data set on neutrophils (0.04% HSA) is 51%. Moreover, the “Percent Neutrophil Migration exp. 1” value in the data set with neutrophils (0.4% HSA) amounted to 81%.
Turning to “TLKAMRKPRCGNPDVAN (listed as Homo sapiens) [Peptide 17-mer]”, the “induction of NHDF migration” value in data set [1] is on record as “not chemotactic to NHDF at any concentration; also recorded: did not induce NHDF migration; also recorded: no effect on fibroblast mobility”.
Turning to “TMRKPRCGNPDVAN (listed as Homo sapiens) [Peptide 14-mer]”, the “induction of NHDF migration” value in data set [1] is “not chemotactic to NHDF at any concentration; also recorded: did not induce NHDF migration; also recorded: no effect on fibroblast mobility”.

The record behind these values is patent publication US7148194B2, “Method to increase fibronectin” (Kimberly-Clark Worldwide, Inc., priority 2002, dated 2006).
